US8686024B2, “Indoline derivatives” (priority 2009, dated 2014)
Like-named read-outs stand apart in the source and are kept apart here.

Assays:
[1] = molecular target: T1, acetylcholine esterase (AChE) (Mus musculus, UniProt P21836); assay: In vitro assay for choline esterase inhibition (Ellman method), acetylthiocholine substrate, mouse brain homogenate; format: biochemical
T1 construct: brain homogenate and serum of mouse were used as choline esterase enzyme sources; from tissue; host or cells: mouse brain homogenate
T1 sequence (P21836 32-614): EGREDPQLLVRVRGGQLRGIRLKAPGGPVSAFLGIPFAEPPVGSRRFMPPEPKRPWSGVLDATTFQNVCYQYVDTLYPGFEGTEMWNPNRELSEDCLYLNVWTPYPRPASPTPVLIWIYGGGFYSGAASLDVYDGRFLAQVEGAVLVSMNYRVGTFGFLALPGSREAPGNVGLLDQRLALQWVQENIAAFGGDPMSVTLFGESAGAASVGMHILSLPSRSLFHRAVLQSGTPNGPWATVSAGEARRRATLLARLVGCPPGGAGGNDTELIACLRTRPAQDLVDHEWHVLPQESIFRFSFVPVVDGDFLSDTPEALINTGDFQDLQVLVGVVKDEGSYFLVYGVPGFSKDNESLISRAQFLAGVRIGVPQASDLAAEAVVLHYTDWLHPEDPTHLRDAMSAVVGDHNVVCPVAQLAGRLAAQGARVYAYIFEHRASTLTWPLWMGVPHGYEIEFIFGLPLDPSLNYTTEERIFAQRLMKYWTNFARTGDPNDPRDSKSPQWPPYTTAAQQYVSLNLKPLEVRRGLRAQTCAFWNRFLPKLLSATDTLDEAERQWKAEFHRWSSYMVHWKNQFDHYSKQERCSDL
Protocol: (§1) For measurement of esterase activity, brain homogenate and serum of mouse were used as choline esterase enzyme sources, and the method of Ellman et. al (Biochemical pharmacology 7: 88-95 1961) were referred. Compound of each example were diluted in dimethylsulfoxide.
(§2) In detail, acetylthiocholine or butyrylthiocholine as substrates, test compounds, and DNTB [[…]] were added to the mouse brain homogenate or serum, respectively.
(§3) After incubation, thiocholine was produced by enzyme reaction in the mixture, and then, the yellow product was formed by the reaction of thiocholine and DTNB. The activity of acetylcholine esterase (AChE) or butyrylcholine esterase (BuChE) was evaluated by determination of absorbance at 415 nm. […] And the selectivity for BuChE inhibition of each compound was calculated by the ratio: IC50 (AchE)/IC50 (BuChE).

[2] = molecular target: T2, butyrylcholine esterase (BuChE) (Mus musculus, UniProt Q03311); assay: In vitro assay for choline esterase inhibition (Ellman method), butyrylthiocholine substrate, mouse serum; format: biochemical; conditions: for Ratio AChE/BuChE: selectivity for BuChE inhibition: IC50 (AchE)/IC50 (BuChE); for selectivity to butyrylcholinesterase (BuChE versus AChE inhibitory activity), in words: summary of Tables 1-3
T2 construct: brain homogenate and serum of mouse were used as choline esterase enzyme sources; from tissue; host or cells: mouse serum
Protocol: as §1, §2, §3

[3] = mouse brain homogenate, acetylthiocholine, absorbance at 415 nm, read-out: AChE inhibitory activity IC50
[4] = mouse serum, butyrylthiocholine, absorbance at 415 nm, read-out: BuChE inhibitory activity IC50

T2 sequence (Q03311 30-603): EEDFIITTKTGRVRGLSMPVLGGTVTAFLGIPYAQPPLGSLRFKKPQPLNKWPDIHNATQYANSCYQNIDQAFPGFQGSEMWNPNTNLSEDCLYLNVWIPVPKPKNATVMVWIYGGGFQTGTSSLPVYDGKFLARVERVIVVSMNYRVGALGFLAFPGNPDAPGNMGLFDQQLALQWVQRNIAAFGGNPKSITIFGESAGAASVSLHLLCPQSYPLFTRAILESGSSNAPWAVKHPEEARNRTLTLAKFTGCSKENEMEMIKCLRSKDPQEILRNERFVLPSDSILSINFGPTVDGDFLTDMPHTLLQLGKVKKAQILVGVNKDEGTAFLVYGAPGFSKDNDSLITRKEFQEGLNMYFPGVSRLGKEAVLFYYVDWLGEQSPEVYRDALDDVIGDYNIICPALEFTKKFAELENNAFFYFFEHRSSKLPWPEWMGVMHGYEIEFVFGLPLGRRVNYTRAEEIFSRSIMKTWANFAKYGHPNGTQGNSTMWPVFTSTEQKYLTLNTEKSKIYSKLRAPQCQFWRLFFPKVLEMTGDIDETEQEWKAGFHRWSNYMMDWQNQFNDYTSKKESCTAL

SMILES | IC50 [1] [nM] | IC50 [2] [nM] | Ratio AChE/BuChE [2] | selectivity to butyrylcholinesterase (BuChE versus AChE inhibitory activity), in words [2] | IC50 [1, 3] [nM] | IC50 [2, 4] [nM]
CN(C)CC(C)(C)CNC(=O)Oc1ccc2c(c1)CCN2Cc1ccccc1 [Example 156, 1-benzylindolin-5-yl 3-dimethylamino-2,2-dimethylpropylcarbamate] | > 100000 | 510 | >200 | – | – | –
COc1ccc(NC(=O)Oc2ccc3c(c2)CCN3Cc2ccccc2)cc1 [Example 9, 1-benzylindolin-5-yl 4-methoxyphenylcarbamate] | > 100000 | 98 | >1000 | much higher | – | –
CN(C)CCCNC(=O)Oc1ccc2c(c1)CCN2Cc1ccccc1 [Example 137, 1-benzylindolin-5-yl 3-(dimethylamino)propylcarbamate] | > 100000 | 180 | >560 | – | – | –
CC(C)c1ccc(NC(=O)Oc2ccc3c(c2)CCN3Cc2ccc[nH]2)cc1 [Example 65, 1-[(pyrrol-2-yl)methyl]indolin-5-yl-4-isopropylphenylcarbamate] | – | – | >140 | – | > 100000 | 700
CSCCCNC(=O)Oc1ccc2c(c1)CCN2Cc1ccccc1 [Example 49, 1-benzylindolin-5-yl 3-methylthiopropylcarbamate] | – | – | 530 | much higher | 6300 | 12
CC(C)c1ccc(NC(=O)Oc2ccc3c(c2)CCN3Cc2ccccc2O)cc1 [Example 66, 1-(2-hydroxybenzyl)indolin-5-yl 4-isopropylphenylcarbamate] | > 100000 | 570 | >180 | – | – | –
CCC(COC)NC(=O)Oc1ccc2c(c1)CCN2Cc1ccccc1 (stereo not drawn) [Example 46, 1-benzylindolin-5-yl 1-methoxybutan-2-ylcarbamate] | > 100000 | 150 | >670 | – | – | –
Cc1ccccc1CCNC(=O)Oc1ccc2c(c1)CCN2Cc1ccccc1 [Example 115, 1-benzylindolin-5-yl 2-methylphenethylcarbamate] | – | – | 1200 | much higher | 12000 | 10
O=C(Nc1ccc2c(c1)CCC2)Oc1ccc2c(c1)CCN2Cc1ccccc1 [Example 85, 1-benzylindolin-5-yl 5-indanylcarbamate] | > 100000 | 420 | >240 | – | – | –
CN(CC1CCCCC1)C(=O)Oc1ccc2c(c1)CCN2Cc1ccccc1 [Example 214, O-(1-benzylindolin-5-yl)-N-(cyclohexylmethyl)-N-methylcarbamate] | > 100000 | 51 | >2000 | much higher | – | –
O=C(Nc1ccc2c(c1)CCO2)Oc1ccc2c(c1)CCN2Cc1ccccc1 [Example 14, 1-benzylindolin-5-yl 2,3-dihydro-1-benzofuran-5-ylcarbamate] | – | – | 66 | – | 2700 | 41
CC(C)(C)C1CCC(NC(=O)Oc2ccc3c(c2)CCN3Cc2ccccc2)CC1 (stereo not drawn) [Example 43, 1-benzylindolin-5-yl 4-tert-butylcyclohexylcarbamate] | > 100000 | 170 | >590 | – | – | –
CC(C)(C)CNC(=O)Oc1ccc2c(c1)CCN2Cc1ccccc1 [Example 153, 1-benzylindolin-5-yl 2,2-dimethylpropylcarbamate] | > 100000 | 91 | >1100 | much higher | – | –
O=C(NCCc1ccc(Cl)cc1Cl)Oc1ccc2c(c1)CCN2Cc1ccccc1 [Example 118, 1-benzylindolin-5-yl 2,4-dichlorophenethylcarbamate] | > 100000 | 10 | >10000 | much higher | – | –
O=C(NCC1CCCO1)Oc1ccc2c(c1)CCN2Cc1ccccc1 (stereo not drawn) [Example 51, 1-benzylindolin-5-yl 2-tetrahydrofurylmethylcarbamate] | – | – | 1100 | much higher | 18000 | 16
O=C(NCc1ccccc1)Oc1ccc2c(c1)CCN2Cc1ccccn1 [Example 150, 1-(2-pyridylmethyl)indolin-5-yl benzylcarbamate] | – | – | 11 | – | 110 | 10

SMILES | IC50 [1] [nM] | IC50 [2] [nM] | Ratio AChE/BuChE [2] | selectivity to butyrylcholinesterase (BuChE versus AChE inhibitory activity), in words [2] | IC50 [1, 3] [nM] | IC50 [2, 4] [nM]
CC(C)c1ccc(NC(=O)Oc2ccc3c(c2)CCN3Cc2ccc(O)cc2)cc1 [Example 78, 1-(4-hydroxybenzyl)indolin-5-yl 4-isopropylphenylcarbamate] | > 100000 | 820 | >120 | – | – | –
O=C(NCCC1CCN(Cc2ccccc2)CC1)Oc1ccc2c(c1)CCN2Cc1ccccc1 [Example 139, 1-benzylindolin-5-yl 2-(1-benzylpiperidin-4-yl)ethylcarbamate] | 2700 | 43 | 63 | – | – | –
CN(C)C(=O)Oc1ccc2c(c1)CCN2Cc1ccccc1 [Example 221, N,N-dimethyl-O-(1-benzylindolin-5-yl)carbamate] | 13000 | 170 | 76 | – | – | –
O=C(NC1CC1)Oc1ccc2c(c1)CCN2Cc1ccccc1 [Example 41, 1-benzylindolin-5-yl cyclopropylcarbamate] | – | – | 190 | – | 36000 | 190
COc1cc(CN2CCc3cc(OC(=O)Nc4ccc(C(C)C)cc4)ccc32)ccc1O [Example 67, 1-(4-hydroxy-3-methoxybenzyl)indolin-5-yl-4-isopropylphenylcarbamate] | – | – | >77 | – | > 100000 | 1300
O=C(NC1CCN(Cc2ccccc2)CC1)Oc1ccc2c(c1)CCN2Cc1ccccc1 [Example 138, 1-benzylindolin-5-yl 1-benzylpiperidin-4-ylcarbamate] | > 100000 | 900 | >110 | – | – | –
O=C(Nc1ccc2c(c1)OCO2)Oc1ccc2c(c1)CCN2Cc1ccccc1 [Example 12, 1-benzylindolin-5-yl 5-benzo[d][1,3]dioxolylcarbamate] | – | – | 38 | – | 11000 | 290
CC(C)c1ccc(NC(=O)Oc2ccc3c(c2)CCN3Cc2ccccc2)cc1 [Example 2, 1-benzylindolin-5-yl 4-isopropylphenylcarbamate] | > 100000 | 570 | >180 | – | – | –
O=C(NCc1ccccn1)Oc1ccc2c(c1)CCN2Cc1ccccc1 [Example 102, 1-benzylindolin-5-yl 2-pyridylmethylcarbamate] | – | – | 77 | – | 10000 | 130
COC1C=CC(CNC(=O)Oc2ccc3c(c2)CCN3Cc2ccccc2)(OC)O1 (stereo not drawn) [Example 122, 1-benzylindolin-5-yl (2,5-dihydro-2,5-dimethoxyfuran-2-yl)methylcarbamate] | > 100000 | 480 | >210 | – | – | –
O=C(NCc1ccccc1)Oc1ccc2c(c1)CCN2Cc1ccccc1 [Example 15, 1-benzylindolin-5-yl benzylcarbamate] | – | – | 140 | much higher | 1800 | 13
CN(C)c1ccc(NC(=O)Oc2ccc3c(c2)CCN3Cc2ccccn2)cc1 [Example 152, 1-(2-pyridylmethyl)indolin-5-yl 4-dimethylaminophenylcarbamate] | – | – | 19 | – | 1100 | 57
O=C(NCCc1ccc(Cl)cc1)Oc1ccc2c(c1)CCN2Cc1ccccc1 [Example 104, 1-benzylindolin-5-yl 4-chlorophenethylcarbamate] | – | – | 500 | much higher | 5500 | 11
CC(C)c1ccc(NC(=O)Oc2ccc3c(c2)CCN3CCC(C)(C)C)cc1 [Example 7, 1-(3,3-dimethylbutyl)indolin-5-yl 4-isopropylphenylcarbamate] | > 100000 | 900 | >110 | – | – | –
CCCNC(=O)Oc1ccc2c(c1)CCN2Cc1ccccc1 [Example 114, 1-benzylindolin-5-yl n-propylcarbamate] | – | – | 29 | – | 5200 | 180
